Experimental data: patent US20250361209A1, “CRYSTAL FORMS OF N-(3-FLUOROPHENYL)-6-(6,7-DIMETHOXYQUINOLIN-4-OXY)-3,4-DIHYDROQUINOLINE-1(2H)-CARBOXAMIDE METHANESULFONATE AND PREPARATION METHOD THEREOF” (Shanghai Yi Feng Biotechnology Co., Ltd., priority 2023, published 2025)
Entries after “also recorded” stand apart in the source; their conditions may differ.

Experiments:
Type in all cases: physicochemical
[1] = Test of influencing factors of crystalline forms A, B and C (total impurity)
Source text: Example 3 Test of Influencing Factors of Crystalline Forms A, B and C

[2] = Solid state stability of the crystalline form C of methanesulfonate (HPLC purity, XRPD); settings: for change in HPLC purity: closed condition 60° C. 24 hours, open condition 25° C./60% RH 1 week or 4 weeks, methanesulfonate
Experimental: The purity decreased from 99.22 area % to 98.80 area % after the crystalline form C was placed under an open condition in an environment of 40° C./75% RH for 4 weeks, with a 0.38% increase in the impurity at RRT of 0.81.

Hygroscopicity, DVS test = assay: Hygroscopicity, DVS test
Experimental: The hygroscopicity of the anhydrate crystalline form C of methanesulfonate was evaluated by a DVS test at 0% RH-95% RH at 25° C.

[3] = 60° C./closed condition/24 hours
[4] = Start* (RH tests; stored at −20° C.)
[5] = open condition 40° C./75% RH, 4 weeks

## COc1cc2nccc(Oc3ccc4c(c3)CCCN4C(=O)Nc3cccc(F)c3)c2cc1OC [Crystalline form C, N-(3-fluorophenyl)-6-(6,7-dimethoxyquinolin-4-oxy)-3,4-dihydroquinoline-1(2H)-carboxamide methanesulfonate]
[1]; High humidity (RH92.5%), 0 day
  Total impurity %: 0.66%
[1]; High humidity (RH92.5%), 10 days
  Total impurity %: 0.75%
[1]; High humidity (RH92.5%), 30 days
  Total impurity %: 0.73%
[1]; High temperature (60° C.), 0 day, methanesulfonate
  Total impurity %: 0.66%
[1]; High temperature (60° C.), 10 days, methanesulfonate
  Total impurity %: 0.81%
[1]; High temperature (60° C.), 30 days
  Total impurity %: 0.85%
[1]; Illumination (5000 + 500 lux), 0 day, methanesulfonate
  Total impurity %: 0.66%
[1]; Illumination (5000 + 500 lux), 10 days, methanesulfonate
  Total impurity %: 0.83%
[1]; Illumination (5000 + 500 lux), 30 days, methanesulfonate
  Total impurity %: 0.89%
[2]
  solid state stability compared with other crystalline forms: better than that of the crystalline form A and the crystalline form B
  change in HPLC purity: No significant change
[2]; 25° C./60% RH open, 1 week*
  Purity, area %, peak 1 RRT 0.42: 0.02 area %
  Purity, area %, peak 2 RRT 0.60-0.61: 0.04 area %
  Purity, area %, peak 3 RRT 0.81: 0.55 area %
  Purity, area %, peak 4 RRT 0.93: 0.05 area %
  Purity, area %, peak 5 RRT 1.00 (main peak): 99.15 area %
  Purity, area %, peak 6 RRT 1.10: 0.14 area %
  Purity, area %, peak 7 RRT 1.27: 0.06 area %
[2]; 25° C./60% RH open, 4 weeks
  Purity, area %, peak 1 RRT 0.42: 0.02 area %
  Purity, area %, peak 2 RRT 0.60-0.61: 0.05 area %
  Purity, area %, peak 3 RRT 0.81: 0.54 area %
  Purity, area %, peak 4 RRT 0.93: 0.05 area %
  Purity, area %, peak 5 RRT 1.00 (main peak): 99.14 area %
  Purity, area %, peak 6 RRT 1.10: 0.14 area %
  Purity, area %, peak 7 RRT 1.27: 0.06 area %
[2]; 40° C./75% RH open, 1 week*
  Purity, area %, peak 1 RRT 0.42: 0.03 area %
  Purity, area %, peak 2 RRT 0.60-0.61: 0.04 area %
  Purity, area %, peak 3 RRT 0.81: 0.69 area %
  Purity, area %, peak 4 RRT 0.93: 0.04 area %
  Purity, area %, peak 5 RRT 1.00 (main peak): 99.02 area %
  Purity, area %, peak 6 RRT 1.10: 0.13 area %
  Purity, area %, peak 7 RRT 1.27: 0.06 area %
[2]; 40° C./75% RH open, 4 weeks
  Purity, area %, peak 1 RRT 0.42: 0.03 area %
  Purity, area %, peak 2 RRT 0.60-0.61: 0.08 area %
  Purity, area %, peak 3 RRT 0.81: 0.86 area %
  Purity, area %, peak 4 RRT 0.93: 0.05 area %
  Purity, area %, peak 5 RRT 1.00 (main peak): 98.80 area %
  Purity, area %, peak 6 RRT 1.10: 0.13 area %
  Purity, area %, peak 7 RRT 1.27: 0.05 area %
[2]; [3]
  Purity, area %, peak 1 RRT 0.42: 0.03 area %
  Purity, area %, peak 2 RRT 0.60-0.61: 0.05 area %
  Purity, area %, peak 3 RRT 0.81: 0.55 area %
  Purity, area %, peak 4 RRT 0.93: 0.05 area %
  Purity, area %, peak 5 RRT 1.00 (main peak): 99.12 area %
  Purity, area %, peak 6 RRT 1.10: 0.15 area %
  Purity, area %, peak 7 RRT 1.27: 0.05 area %
[2]; Start (60° C. closed test)
  Purity, area %, peak 1 RRT 0.42: 0.03 area %
  Purity, area %, peak 2 RRT 0.60-0.61: 0.05 area %
  Purity, area %, peak 3 RRT 0.81: 0.54 area %
  Purity, area %, peak 4 RRT 0.93: 0.05 area %
  Purity, area %, peak 5 RRT 1.00 (main peak): 99.13 area %
  Purity, area %, peak 6 RRT 1.10: 0.15 area %
  Purity, area %, peak 7 RRT 1.27: 0.06 area %
[2]; [4]
  Purity, area %, peak 1 RRT 0.42: 0.02 area %
  Purity, area %, peak 2 RRT 0.60-0.61: 0.03 area %
  Purity, area %, peak 3 RRT 0.81: 0.48 area %
  Purity, area %, peak 4 RRT 0.93: 0.05 area %
  Purity, area %, peak 5 RRT 1.00 (main peak): 99.22 area %
  Purity, area %, peak 6 RRT 1.10: 0.14 area %
  Purity, area %, peak 7 RRT 1.27: 0.06 area %
[2]; after stability test
  crystalline form after the stability test (XRPD): no change in crystalline form
[2]; listed as crystalline form C of methanesulfonate
  change in HPLC purity: no significant decrease
[2]; [5]
  decrease in purity: 0.42 area %
  increase in the impurity at RRT of 0.81: 0.38%
Hygroscopicity, DVS test
  hygroscopicity compared with other crystalline forms: better than that of the crystalline form A and the crystalline form B
Hygroscopicity, DVS test; DVS 0% RH-95% RH at 25° C., classification per Chinese Pharmacopoeia 2015
  hygroscopicity classification: slight hygroscopicity
Hygroscopicity, DVS test; DVS, 25° C./80% RH
  hygroscopic weight gain: about 0.46%
Hygroscopicity, DVS test; after DVS test, listed as crystalline form C of methanesulfonate, methanesulfonate
  crystalline form after the DVS test (XRPD): no change in crystalline form; also recorded: remained unchanged
